Assay results published in the supplement of paper PMC11451515.

Test system: NOMO1
Assay: cell viability relative to DMSO control; higher = less cytotoxic
Conditions: 48 h
How it was run: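 Viability is a per-plate percentage relative to DMSO wells, with cell-free wells as background. CellTiter-Glo One luminescence was read after 48 h at 37°C on 1536-well plates (5 μl) of NOMO1 or SEM (500 cells/well) or P12-Ichikawa (1000 cells/well) leukemia cells. The cells had been adapted for at least four passages in each medium and pin-dosed with library compounds in DMSO from 47 μM to 0.79 nM in 11 threefold steps.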

[1] = HPLM + 10% dialyzed FBS, 0.000781 µM
[2] = HPLM + 10% dialyzed FBS, 0.00234 µM
[3] = HPLM + 10% dialyzed FBS, 0.00702 µM
[4] = HPLM + 10% dialyzed FBS, 0.0211 µM
[5] = HPLM + 10% dialyzed FBS, 0.0632 µM
[6] = HPLM + 10% dialyzed FBS, 0.19 µM
[7] = HPLM + 10% dialyzed FBS, 0.569 µM
[8] = HPLM + 10% dialyzed FBS, 1.71 µM
[9] = HPLM + 10% dialyzed FBS, 5.12 µM
[10] = HPLM + 10% dialyzed FBS, 15.4 µM
[11] = HPLM + 10% dialyzed FBS, 46.1 µM
[12] = RPMI 5 mM glucose + 10% FBS, 0.000781 µM
[13] = RPMI 5 mM glucose + 10% FBS, 0.00234 µM
[14] = RPMI 5 mM glucose + 10% FBS, 0.00702 µM
[15] = RPMI 5 mM glucose + 10% FBS, 0.0211 µM
[16] = RPMI 5 mM glucose + 10% FBS, 0.0632 µM
[17] = RPMI 5 mM glucose + 10% FBS, 0.19 µM
[18] = RPMI 5 mM glucose + 10% FBS, 0.569 µM
[19] = RPMI 5 mM glucose + 10% FBS, 1.71 µM
[20] = RPMI 5 mM glucose + 10% FBS, 5.12 µM
[21] = RPMI 5 mM glucose + 10% FBS, 15.4 µM
[22] = RPMI 5 mM glucose + 10% FBS, 46.1 µM
[23] = RPMI 5 mM glucose + 10% dialyzed FBS, 0.000781 µM
[24] = RPMI 5 mM glucose + 10% dialyzed FBS, 0.00234 µM
[25] = RPMI 5 mM glucose + 10% dialyzed FBS, 0.00702 µM
[26] = RPMI 5 mM glucose + 10% dialyzed FBS, 0.0211 µM
[27] = RPMI 5 mM glucose + 10% dialyzed FBS, 0.0632 µM
[28] = RPMI 5 mM glucose + 10% dialyzed FBS, 0.19 µM
[29] = RPMI 5 mM glucose + 10% dialyzed FBS, 0.569 µM
[30] = RPMI 5 mM glucose + 10% dialyzed FBS, 1.71 µM
[31] = RPMI 5 mM glucose + 10% dialyzed FBS, 5.12 µM
[32] = RPMI 5 mM glucose + 10% dialyzed FBS, 15.4 µM
[33] = RPMI 5 mM glucose + 10% dialyzed FBS, 46.1 µM

Row | Structure (SMILES) | cell viability [1] | cell viability [2] | cell viability [3] | cell viability [4] | cell viability [5] | cell viability [6] | cell viability [7] | cell viability [8] | cell viability [9] | cell viability [10] | cell viability [11] | cell viability [12] | cell viability [13] | cell viability [14] | cell viability [15] | cell viability [16] | cell viability [17] | cell viability [18] | cell viability [19] | cell viability [20] | cell viability [21] | cell viability [22] | cell viability [23] | cell viability [24] | cell viability [25] | cell viability [26] | cell viability [27] | cell viability [28] | cell viability [29] | cell viability [30] | cell viability [31] | cell viability [32] | cell viability [33]
1 | C[C@@H](CN1CC(=O)NC(=O)C1)N1CC(=O)NC(=O)C1 | 112% | 125% | 121% | 117% | 113% | 55.7% | 32.8% | 22.3% | 33% | 8.92% | 13.7% | 106% | 113% | 125% | 101% | 113% | 89% | 55.9% | 15.4% | 17.5% | 8.63% | 12.9% | 102% | 111% | 99.9% | 114% | 109% | 83% | 44.7% | 18.8% | 21.5% | 17.2% | 19.8%
2 | COC1=CC=C(C(=C1)OC(C)C)C/2=N/[C@@H]([C@@H](N2C(=O)N3CCNC(=O)C3)C4=CC=C(Cl)C=C4)C5=CC=C(Cl)C=C5 | 119% | 115% | 114% | 120% | 119% | 112% | 124% | 105% | 96.1% | 29.3% | 5.33% | 105% | 118% | 106% | 100% | 103% | 103% | 104% | 103% | 95.9% | 78.1% | 7.76% | 100% | 102% | 104% | 105% | 102% | 114% | 106% | 103% | 90.8% | 70.3% | 17.7%
3 | CCCNC(=O)Nc1ccc(Oc2ncnc3cc(OC)c(OC)cc23)cc1Cl | 96.9% | 98% | 84.1% | 95.7% | 97.7% | 87.9% | 103% | 81.8% | 71% | 71.6% | 73.5% | 89.6% | 90.7% | 84.7% | 95.7% | 86% | 90.6% | 81.9% | 90.3% | 87.4% | 82% | 77.6% | 97.8% | 92.4% | 101% | 96.7% | 90.9% | 88.4% | 86.7% | 84.4% | 84.7% | 81.9% | 70.5%
4 | NC(=O)c1ccc(N(C(N)=O)c2c(F)cccc2F)nc1-c1ccc(F)cc1F | 90% | 103% | 113% | 104% | 115% | 115% | 95.3% | 114% | 99.6% | 94.8% | 111% | 80.4% | 86.9% | 95.4% | 100% | 94.3% | 93.8% | 95.2% | 105% | 101% | 84.9% | 88% | 78.2% | 92.4% | 91.1% | 99.1% | 85.4% | 91.6% | 95% | 87.4% | 93.6% | 80.4% | 94.3%
5 | O=C(O)C(=O)c1cn(Cc2ccccc2)c2ccc(-c3ccc(OC(F)(F)F)cc3)cc12 | 101% | 102% | 105% | 107% | 108% | 108% | 110% | 81.4% | 91.3% | 90.6% | 88.5% | 93.5% | 94.8% | 90.3% | 109% | 96% | 100% | 104% | 89.6% | 97.8% | 96.1% | 89.5% | 106% | 96.8% | 104% | 119% | 97.8% | 95.3% | 100% | 85.2% | 93% | 98.4% | 80.8%
6 | CC(C)(O)CC(=O)NCCn1ccc2ncnc(Nc3ccc(Oc4cccc(C(F)(F)F)c4)c(Cl)c3)c21 | 96.8% | 109% | 107% | 120% | 89.5% | 98.9% | 107% | 85.5% | 80.5% | 54.7% | 33.9% | 95.1% | 109% | 103% | 105% | 101% | 97.9% | 111% | 95.3% | 96.8% | 79% | 53.6% | 106% | 100% | 95.3% | 108% | 99.8% | 109% | 107% | 97.1% | 81.9% | 67.8% | 44.1%
7 | N[C@@H]1CONC1=O | 90.7% | 110% | 112% | 101% | 99.4% | 107% | 104% | 110% | 107% | 94.4% | 105% | 84.4% | 88.7% | 95.7% | 91.6% | 94.4% | 90.6% | 94.2% | 99.4% | 94.6% | 90.1% | 88.7% | 87.4% | 98.8% | 112% | 96% | 99.3% | 101% | 107% | 88% | 96.2% | 89.9% | 93.7%
